Series [1] relates to B. subtilis. In words: Minimal inhibitory concentration, broth dilution. The class given is cell-based, B. subtilis (BCRC 10614). The settings on record: Bacillus subtilis, standard broth dilution. The method, then:
(§1) Determination of Minimal Inhibition Concentration (MIC). B. subtilis (BCRC 10614) and S. aureus (BCRC 11863) was obtained from Bioresource Collection and Research Center (BCRC), Taiwan. The minimal inhibitory concentration of tested compounds was determined following the NCCLS standard. The experiments were conducted in 96-well microtiter plates using 16-point 2-fold dilutions in Muller-Hilton broth. Exponentially growing cells at 5 × 10^5 cells/mL were incubated with test compounds at various concentrations in a final volume of 100 μL. After an 18 to 24 h incubation at 37 °C, the minimal concentration of the compound that prevents at least 95% bacterial growth was determined as the MIC value of a given molecule.
(§2) (1 picture or pasted object on this page, not shown here)
Background: Dilution methods test growth across graded concentrations, often in twofold steps.

Series [2] concerns the target T1, MraYBS (Bacillus subtilis, UniProt Q03521).
T1 construct: MBP; made in house
T1 sequence (Q03521 1-324): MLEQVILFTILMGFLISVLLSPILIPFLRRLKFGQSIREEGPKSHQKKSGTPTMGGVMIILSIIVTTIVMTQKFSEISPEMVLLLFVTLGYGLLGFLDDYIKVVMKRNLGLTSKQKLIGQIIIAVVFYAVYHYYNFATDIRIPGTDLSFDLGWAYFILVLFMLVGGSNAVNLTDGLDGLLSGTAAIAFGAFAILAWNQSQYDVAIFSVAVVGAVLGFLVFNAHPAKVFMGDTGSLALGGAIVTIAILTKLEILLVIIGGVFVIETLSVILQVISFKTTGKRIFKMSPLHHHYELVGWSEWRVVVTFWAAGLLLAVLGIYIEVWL
The series is described as follows: Biolayer interferometry-based (BLI) binding assay. The method, then:
MraYBS binding was measured in a biolayer interferometry-based binding assay on Octet Red96® instrument (ForteBio, Inc.). The biotinylation of MraYBS was performed with using EZ-Link® Sulfo-NHS-LC-LC-Biotin Kit (Thermo Fisher Scientific, Inc.). In general, MraYBS (1.7 mg/mL) in 50 μL reaction buffer (0.01 M HEPES pH 7.4, 0.15 M NaCl, 0.005% v/v Surfactant P20), was added by the sulfo-NHS-LC-LC-biotin reagent (1 mM, 1 μL). After incubating for 30 minutes at room temperature, the biotinylated-MraYBS was purified by a Zeba^TM Spin Desalting Columns, 7K MWCO (Thermo Fisher Scientific, Inc.), and the buffer was changed to the binding buffer (30 mM Tris, 10 mM MgCl2, 10 mM NaCl, 0.1 mM Tween-20, pH 8.0) during the purification. Comparing to the non-biotinylated-MraYBS, the biotinylated-MraYBS remains 62% activity measured by the HPLC-based MraY functional assay in 1 h reaction. The biotinylated MraYBS was then immobilized to Super Streptavidin (SSA) Octet tips (ForteBio, Inc.) for reaching a fixed signal of 3 nm. Before the assay starting, the MraYBS-labeled SSA sensors were pre-soaked in binding buffer for 30 min. The association of Park’s analogues with MraYBS were measured by incubating MraYBS-labeled SSA sensors in binding buffer containing various concentrations of samples in Octet Red system. The dissociation was monitored by moving the ligand biosenors from the analyte solution to binding buffer. The dissociation constants (KD) were obtained by nonlinear regression analysis using the specific binding model with the GraphPad Prism program (GraphPad Software, San Diego, CA).

Series [3] concerns the target T1, MraYBS. In words: MraY fluorescence enhancement assay (kinetics, inhibition). It is filed as biochemical. The conditions noted are these: for Inhibition Mode: Lineweaver-Burk, 6 as substrate. The method, then: (§3) Determine kinetic parameters by MraY fluorescence enhancement assay. The fluorescence enhancement assay was performed in 384-well plate as described by Bugg et al. with slight modifications.5 The reaction mixture containing MraYBS (10 μg/mL), C55P (200 μM) in 30 μL reaction buffer (30 mM Tris, 10 mM MgCl2, 10 mM NaCl, 0.1 mM Tween-20, 2.5% DMSO, pH 8.0) were pre-incubated at 37 °C for 15 min. The reactions were initiated by the addition of various concentrations of NBD-Park’s nucleotide 6 (0 to 160 μM). For inhibition study, a various concentrations of inhibitors were added before the addition of substrate 6. The continuous fluorescence increase over 60 min was monitored with λex 466 nm/λem 535 nm by fluorescence microplate reader (SpectraMax M5, Molecular Devices, LLC) at 37 °C. Linear regressions of increased fluorescent units (FLU) versus time (min) were used to calculate the initial velocities for each reaction. The kinetic parameters values (Ki, KM, and Vmax) were obtained by nonlinear regression analysis using the […] equation with the GraphPad Prism program (GraphPad Software, San

Series [4] has as its target T1, MraYBS. In words: HPLC-based MraY functional assay (substrate activity). The class given is biochemical. The conditions noted are these: Park's nucleotides 10 μM, MraYBS 40 μg/mL, C55P 1 mM, 37 °C, 24 h. The method, then:
The purified MraY from Bacillus subtilis was prepared as described in our previous reports. […] […] The reaction mixtures were added by uridine (0.01 mg/mL) as the internal standard and heated to 100 °C to stop the transferring reaction. The samples were analyzed by RP-C18 HPLC with gradient elution of 0.25 M NH4HCO3(aq)/15% MeOH in water (100:0 to 0:100) at a flow rate of 1 mL/min over 45 min, and the peaks of substrates were monitored at UV 260 nm. For 6 and 11–17, the reaction mixture containing MraYBS (10 μg/mL), C55P (200 μM), 6-(7-Nitro-2,1,3-benzoxadiazol-4-ylamino)hexanoic acid (5 μM, internal standard) in 10 μL reaction buffer (30 mM Tris, 10 mM MgCl2, 10 mM NaCl, 0.1 mM Tween-20, 2.5% DMSO, pH 8.0) were pre-incubated at 37 °C for 15 min. […] The reaction mixtures were heated to 100 °C to stop the transferring reaction, and samples were analyzed by an anion-exchange column (SAX1, Supelco Co., 5 μm, 4.6 × 250 mm) with a linear gradient elution of NH4OAc (20 mM to 1 M in MeOH) at a flow rate of 1.0 mL/min over 30 min. The fluorescent substrates were monitored with λex 466 nm/λem 535 nm by fluorescence detector.

The test system of series [5] is S. aureus. The series is described as follows: Minimal inhibitory concentration, broth dilution. The settings on record: Staphylococcus aureus, standard broth dilution. It is filed as cell-based, S. aureus (BCRC 11863). How it is done: as §1, §2
Series [6] relates to CC(=O)N[C@H]1[C@@H](OP(=O)(O)OP(=O)(O)OC[C@H]2O[C@@H](n3ccc(=O)[nH]c3=O)[C@H](O)[C@@H]2O)O[C@H](CO)[C@@H](O)[C@@H]1O[C@H](C)C(=O)N[C@@H](C)C(=O)N[C@H](CCC(=O)N[C@@H](CCCCNC(=O)CCCCCNc1ccc([N+](=O)[O-])c2nonc12)C(=O)N[C@H](C)C(=O)N[C@H](C)C(=O)O)C(=O)O. In words: Fluorescent enhancement assay, mutant MraY. The class given is biochemical, Bacillus subtilis. The settings on record: pH 8.0; 37.0 °C. The method, then:
Site–directed mutagenesis of MraY. Site-directed mutagenesis of the B. subtilis MBP-tagged MraY enzyme was performed directly on the pMAL -BS-MraY-16 expression plasmid by using the “Quickchanged XL Site-Directed Mutagenesis Kit ’’ from stratagene and the oligonucleotides shown below. Mutations introduced in the mraY gene sequence were checked by DNA sequencing. […]
MraY-T51A-R 5’-[…]-3’
T53A MraY-T53A-F 5’-[…]-3’
MraY-T53A-R 5’-[…]-3’
K102A MraY-K102A-F 5’-[…]-3’
MraY-K102A-R 5’-[…]-3’
K226A Mray-K226A-F 5’-[…]-3’ […]
F228A MraY-F228A-F 5’-[…]-3’
MraY-F228A-R 5’-[…]-3’
Q271A Mray-Q271A-F 5’-[…]-3’
Mray-Q271A-R 5’-[…]-3’
R281A MraY-R281A-F 5’-[…]-3’
MraY-R281A-R 5’-[…]-3’
W297A MraY-W297A-F 5’-[…]-3’
MraY-W297A-R 5’-[…]-3’
as §3, §2

Substrate in series [7]: CC(=O)N[C@H]1[C@@H](OP(=O)(O)OP(=O)(O)OC[C@H]2O[C@@H](n3ccc(=O)[nH]c3=O)[C@H](O)[C@@H]2O)O[C@H](CO)[C@@H](O)[C@@H]1O[C@H](C)C(=O)N[C@@H](C)C(=O)N[C@H](CCC(=O)N[C@@H](CCCCNC(=O)CCCCCNc1ccc([N+](=O)[O-])c2nonc12)C(=O)N[C@H](C)C(=O)N[C@H](C)C(=O)O)C(=O)O
The series is described as follows: MraY fluorescence enhancement assay (kinetics, inhibition). The class given is biochemical, Bacillus subtilis. The settings on record: other: WT MraYBS, 6 as the substrate; pH 8.0; 37.0 °C. The method, then: as §3

Entries after “also recorded” stand apart in the source; their conditions may differ. A value given as a limit tells only on which side of the number the result lay.

Usually MIC stands for the least concentration at which growth counts as inhibited. By Kd is commonly meant the free concentration of one partner at which half of the binding sites on the other are occupied at equilibrium, for simple one-to-one binding. The low end stands for tighter binding, the high end for weaker binding. Usually Ki stands for a measure of affinity in units of concentration, obtained from inhibition or displacement. `CC(=O)N[C@H]1[C@@H](OP(=O)(O)OP(=O)(O)OC[C@H]2O[C@@H](n3cc(NC(=O)Cc4ccc(C)cc4)c(=O)[nH]c3=O)[C@H](O)[C@@H]2O)O[C@H](CO)[C@@H](O)[C@@H]1O[C@H](C)C(=O)N[C@@H](C)C(=O)N[C@H](CCC(=O)N[C@@H](CCCCN)C(=O)N[C@H](C)C(=O)N[C@H](C)C(=O)O)C(=O)O` [Compound 22] gave a minimal inhibitory concentration (MIC) in series [1] greater than 200 µM. Also, in series [2], the Kd was 86 ± 12 µM. For the same molecule, in series [2] (ratio of KD), the “binding affinity fold stronger than that of 20” value was “approximately 2.3 fold”. Besides, in series [3], the Ki worked out at 4 ± 1 µM, the “potency relative to tunicamycins (Ki)” value is “approximately two-fold; also recorded: roughly twice” and the “Inhibition Mode” value was “Competitive”. For the same molecule, in series [4], the “substrate under extreme reaction conditions” value is “not be a substrate”. Further, the MIC in series [5] is greater than 200 µM.

What is called Km is the substrate concentration at which the rate is half of its maximum. As to “MraYBS T51A mutant (Bacillus subtilis subsp. subtilis str. 168; T51A)”, the Michaelis-Menten constant (Km) in series [6] worked out at 24 ± 2 µM.

`CC(=O)N[C@H]1[C@@H](OP(=O)(O)OP(=O)(O)OC[C@H]2O[C@@H](n3cc(NC(=O)Cc4ccc(C)cc4)c(=O)[nH]c3=O)[C@H](O)[C@@H]2O)O[C@H](CO)[C@@H](O)[C@@H]1O[C@H](C)C(=O)N[C@@H](C)C(=O)O` [Compound 20]: the minimum inhibitory concentration (MIC) in series [1] is greater than 200 µM. Moreover, the Kd in series [2] was determined as 197 ± 47 µM. Besides, the “binding affinity fold stronger than that of 19” value in series [2] (ratio of KD) is listed as “approximately 1.5 fold”. In series [3], the Ki turned out to be 11 ± 3 µM; the “difference of inhibition abilities (Ki values) of 19 and 20” value came out at 70 fold; the “Inhibition Mode” value was “Competitive”. For the same molecule, in series [5], the minimum inhibitory concentration (MIC) was greater than 200 µM.

On to “MraYBS F228A mutant (Bacillus subtilis subsp. subtilis str. 168; F228A)”, for which the Michaelis constant (Km) in series [6] is 18 ± 2 µM.

Turning to “MraYBS R281A mutant (Bacillus subtilis subsp. subtilis str. 168; R281A)”, in series [6], the Michaelis constant (Km) was found to be 20 ± 1 µM.

For “MraYBS T53A mutant (Bacillus subtilis subsp. subtilis str. 168; T53A)”, the Km in series [6] is 70 ± 11 µM.

Regarding “MraYBS W297A mutant (Bacillus subtilis subsp. subtilis str. 168; W297A)”, the Michaelis constant (Km) in series [6] was determined as 63 ± 9 µM.

Turning to “MraYBS K226A mutant (Bacillus subtilis subsp. subtilis str. 168; K226A)”, in series [6], the Michaelis constant (Km) was determined as 24 ± 3 µM.

For the molecule “MraYBS K102A mutant (Bacillus subtilis subsp. subtilis str. 168; K102A)”, in series [6], the Michaelis-Menten constant (Km) was 49 ± 9 µM.

Regarding “MraYBS Q271A mutant (Bacillus subtilis subsp. subtilis str. 168; Q271A)”, the Km in series [6] came to 72 ± 11 µM.

B1: MraYBS (Bacillus subtilis subsp. subtilis str. 168) (protein)
chain: T1 sequence (Q03521 1-324)
notes: MBP; made in house
Consider B1, for which, in series [7], the Km turned out to be 18 ± 1 µM.

(Values after publication PMC4987650, “Structural Investigation of Park’s Nucleotide on Bacterial Translocase MraY: Discovery of Unexpected MraY Inhibitors” (Scientific Reports, 2016).)
